In patent US9617170B2, “Water treatment” (Kemira Oyj, priority 2012, dated 2017):
Values joined by “and” are separate entries in the source; they are usually repeats but may differ in a detail not shown here. Equal entries are not always repeated.

Legend:
[1] = tested on: MS2; conditions: PAA 7-15 mg/l; cited from earlier work
[2] = Decomposition of 8 spiked micropollutants in secondary waste water by PFA and UV (batch reactor); conditions: total reaction time 15 min
Method: The total reaction time was always kept in 15 min and the treatment temperature was between 10-15° C. The concentrations of each micropollutant were analyzed before and after treatment, and the difference was used to calculate the conversion of each compound. Further, a mean value of the conversions (%) of those 8 compounds was calculated to describe the overall efficiency of the treatment.

[3] = tested on: Enterococci; assay: Disinfection of spiked wastewater effluent with PFA, UV and PFA+UV: Enterococci count; parameters: species or system Enterococcus faecalis; conditions: for PFA in combination with UV (Qa): UV 15 mWs/cm^2; for PFA in combination with UV (Qa) / PFA alone (QA): interpolated
Method: (§1) Since the wastewater effluent might contain less than 100 cfu/ml (10^4 cfu/100 ml) of E. coli and Enterococci these microorganisms were spiked to wastewater so that the numbers of these microorganisms would be at the level of 10^4-10^5 cfu/ml allowing to study better reduction. E. coli ATTC 15597 and Enterococcus faecalis ATCC 29212 were produced in tryptone yeast extract broth as overnight shaker cultures at 37° C. and kept at 4° C. during the experiment. The numbers of E. coli and Enterococci (containing thus both the natural and spiked ones) were enumerated from effluent and effluent after disinfections by using Chromocult agar (Merck) and confirmed by indole production for E. coli and Slanetz-Bartley agar (Labema) for Enterococci incubated at 37° C. for 1 and 2 days, respectively.
(§2) The enumerations of E. coli and Enterococci were done as for fresh wastewater keeping the mixture at 4° C. for less than 5 hours before starting the analysis.
(§3) Only UV-irradiation: The spiked wastewater effluent was mixed and treated in a collimator device (UV intensity of 0.22 mW/cm^2 on surface of the solution) to treat UV-irradiations using UV 15 mWs/cm^2 alone, UV 25 mWs/cm^2 alone and UV 50 mWs/cm^2 alone. The enumerations of E. coli and Enterococci were determined as previously.
(§4) E. coli and Enterococci were analyzed by the spread-plate-technique. E. coli were cultivated on Chromocult agar (Merck, KGaA, Germany) and incubated at 37° C. for 21+3 h (preferring 2 days) and Enterococci on Slanez & Bartley agar (Lab M, IDG plc, Bury, Lancashire, UK) and incubated at 37° C. for 48+3 h. E. coli were confirmed by oxidase. Bacterial numbers were calculated as CFU/ml (CFU=Colony Forming Unit) and reductions were also determined. These bacterial determination methods are describes in ISO-9308-1 (E. coli) and SFS-EN ISO 7899-2 (Enterococci).
(§5) The graphs of Log reduction vs. dose were made and the values below were interpolated from the linear function of the data points.

[4] = tested on: MS2; assay: Disinfection of MS2-spiked wastewater effluent with PFA, UV and PFA+UV (plaque count); parameters: species or system RNA coliphages (MS2)
Method: Freshly prepared DEX-135® was added to wastewater effluent (500 ml) that was spiked with RNA coliphages (MS2) to contain 38534 PFU/ml MS2 and mixed continuously with a magnetic stirrer.
UV disinfection using collimator device: The test was done with 50 ml of wastewater effluent The waters were taken in to the cylinders and that was spiked with RNA coliphages (MS2) to contain 38534 PFU/ml MS2 and mixed. 10 ml of this water was taken in to the Petri dishes (diameter 6 cm) and exposed to UV using collimated beam (intensity I0 on the surface of water […]) with continue mixing with magnet stirrer. […]
Determination of microorganisms: The microbiological analyses were started within a few minutes after disinfection segment of the experiment. MS2 coliphages were determined on phage TYG-agar by basing on old double-agar-layer-method (Adams, 1959), with Escherichia coli ATCC 15597 and 13706, respectively as host bacteria and overnight incubation at 37° C. After incubation, virus plaques were counted and results calculated as PFU/ml (PFU=Plaque Forming Unit) and reduction percentage were also determined. […]
The synergistic index was calculated by the method presented by F. C. […] Here, the synergistic index was calculated using the following formula: Synergistic index SI=Qa/QA+Qb/QB.
Synergistic index was calculated for 1 log reduction.

[5] = tested on: E. coli; assay: Disinfection of spiked wastewater effluent with PFA, UV and PFA+UV: E. coli count; parameters: species or system Escherichia coli; conditions: for PFA in combination with UV (Qa): UV 15 mWs/cm^2; for PFA in combination with UV (Qa) / PFA alone (QA): interpolated
Method: as §1, §2, §3, §4, §5

[6] = PFA 0.25 mg/l alone, 10 minutes contact

CC(=O)OO [PAA, peracetic acid]
log reduction of MS2 [1]: 1-1.5

O=COO [PFA, performic acid]
average conversion (%) of 8 compounds ([2]; PFA 5 mg/l, UV 0 min): 1.66%
average conversion (%) of 8 compounds ([2]; PFA 5 mg/l, UV 1 min): 15.27%
average conversion (%) of 8 compounds ([2]; PFA 5 mg/l, UV 5 min): 28.53%
average conversion (%) of 8 compounds ([2]; PFA 5 mg/l, UV 15 min): 47.86%
average conversion (%) of 8 compounds ([2]; PFA 12.5 mg/l, UV 0 min): 5.15%
average conversion (%) of 8 compounds ([2]; PFA 12.5 mg/l, UV 1 min): 19.25%
average conversion (%) of 8 compounds ([2]; PFA 12.5 mg/l, UV 5 min): 36.25%
average conversion (%) of 8 compounds ([2]; PFA 12.5 mg/l, UV 15 min): 54.18%
average conversion (%) of 8 compounds ([2]; PFA 25 mg/l, UV 0 min): 8.98%
average conversion (%) of 8 compounds ([2]; PFA 25 mg/l, UV 1 min): 16.64%
average conversion (%) of 8 compounds ([2]; PFA 25 mg/l, UV 5 min): 41.61%
average conversion (%) of 8 compounds ([2]; PFA 25 mg/l, UV 15 min (88 mJ/cm^2)): 66.78%
PFA in combination with UV (Qa) ([3]; Log reduction 2.5): 0.03 mg/L
PFA alone (QA) ([3]; Log reduction 2.5): 0.47 mg/L
PFA in combination with UV (Qa) ([3]; Log reduction 3): 0.19 mg/L
PFA alone (QA) ([3]; Log reduction 3): 0.56 mg/L
PFA in combination with UV (Qa) ([3]; Log reduction 3.5): 0.35 mg/L
PFA alone (QA) ([3]; Log reduction 3.5): 0.66 mg/L
PFA in combination with UV (Qa) ([3]; Log reduction 4): 0.52 mg/L
PFA alone (QA) ([3]; Log reduction 4): 0.75 mg/L
Log reduction ([3]; PFA 0.25 mg/l + UV 15 mWs/cm^2): 4.53
Log reduction [3, 6]: 3.08
PFA dose for 1 log reduction of MS2 ([4]; PFA alone, effluent wastewater, 90% (1 log) removal): 3.5 mg/l
synergy index (SI) ([4]; UV + PFA, 1 log reduction of MS2): 1
SI ([5]; Log reduction 1.5, PFA 0.06 mg/l + UV 15 mWs/cm^2): 0.88
PFA in combination with UV (Qa) ([5]; Log reduction 1.5): 0.06 mg/L
PFA alone (QA) ([5]; Log reduction 1.5): 0.33 mg/L
SI ([5]; Log reduction 2, PFA 0.22 mg/l + UV 15 mWs/cm^2): 1 and 1.02
PFA in combination with UV (Qa) ([5]; Log reduction 2): 0.22 mg/L
PFA alone (QA) ([5]; Log reduction 2): 0.44 mg/L
Log reduction ([5]; PFA 0.25 mg/l + UV 25 mWs/cm^2): 3.52
Log reduction [5, 6]: 1.72
